Experimental data: article PMC11602115 (Journal of Medicinal Chemistry, 2017)
pEC50, pKi: −log10 of the molar value. Like-named read-outs stand apart in the source and are kept apart here.

Key:
[1] = biological target: IP (Homo sapiens, UniProt P43119); experiment: HTRF cAMP assay, recombinant human IP receptor stably expressed in CHO-K1 cells; assay type: cell-based; set-up: expressed in transfected cells
[2] = biological target: T1, EP3v6 (Homo sapiens, UniProt P43115); experiment: Radioligand binding, EP3v6 ([3H]-PGE2); set-up: purchased MDS Pharma (Taiwan) and CEREP (France), contract assays; conditions: for pKi: cloned human receptor
T1 sequence (P43115 1-374 isoform P43115-4): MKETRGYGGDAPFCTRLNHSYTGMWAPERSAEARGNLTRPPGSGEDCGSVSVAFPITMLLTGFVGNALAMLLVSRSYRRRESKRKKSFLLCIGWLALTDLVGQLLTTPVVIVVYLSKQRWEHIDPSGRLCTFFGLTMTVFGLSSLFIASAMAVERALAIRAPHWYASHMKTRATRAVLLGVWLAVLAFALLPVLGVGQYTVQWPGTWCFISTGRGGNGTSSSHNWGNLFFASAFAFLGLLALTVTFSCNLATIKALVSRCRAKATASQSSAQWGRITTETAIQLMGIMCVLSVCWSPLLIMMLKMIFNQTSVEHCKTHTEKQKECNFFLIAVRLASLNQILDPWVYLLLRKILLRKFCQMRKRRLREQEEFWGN
Method: Additional (non-IP) receptor binding assays were carried out by MDS Pharma (Taiwan) and CEREP (France).

[3] = biological target: EP4 (Homo sapiens, UniProt P35408); experiment: cAMP HTRF agonist assay, EP4; assay type: cell-based; conditions: for agonist activity at EP4: HTRF cAMP functional assay
From the text: Table Sup2: Data with some comparator compounds in functional assays.
Compound DP1 EP1 EP2 EP3v6 EP4
EC50, µµµµM (% I.A) EC50, µµµµM (% I.A) EC50, µµµµM (% I.A) EC50, µµµµM (% I.A) EC50, µµµµM (% I.A)
n = 3 n = 2 n = 8 n = 6 n = 6 […]

[4] = biological target: T2, rat IP (Rattus norvegicus, UniProt P43253); experiment: HTRF cAMP assay, recombinant rat IP receptor; assay type: cell-based; set-up: expressed in transfected cells; conditions: for pEC50: HTRF (cAMP) rat IP receptor assay, mean of at least three determinations; for Emax: read-out: rIP % IA
[5] = biological target: T1, EP3v6; experiment: Melanophore dispersion assay, EP3v6; assay type: cell-based; set-up: expressed in transfected cells; host or cells: melanophores (transient, electroporation); conditions: for behaviour at EP3 in melanophore platform: potencies similar to binding affinities; for pEC50 / EP3v6 % I.A: melanophore dispersion assay (Gi)
Method: For the EP3v6 receptor functional assay, melanophores were transfected by electroporation using 20 μg of recombinant human EP3v6 receptor plasmid DNA per 400 μL of cell suspension. Transfected cells were immediately resuspended in fresh growth medium and plated in 384-well clear, polystyrene microplates. Plated cells were incubated at 27 °C for 48 h after transfection in order to achieve optimal receptor expression. To perform the assay, growth medium was removed from the assay plates and replaced with assay buffer (40 μL/well, 0.7× PBS, pH 7.3, supplemented with 20 nM melatonin to induce pigment aggregation). Following a 90 min incubation at room temperature, a 650 nm absorbance reading was collected and test compounds (10 μL per well) were transferred to the assay plates. Plates were incubated for 90 min at room temperature to allow compound-induced pigment redistribution to take place, and final absorbance reading was then collected. Test compounds were solubilized and serially diluted in DMSO, using 5-fold dilutions, to generate a 10-point dose–response curve with a top concentration of 10 μM (final assay concentration). Samples were then further diluted in assay buffer to achieve a 5× stock prior to addition to the assay plates. A SpectraMax absorbance plate reader (Molecular Devices, Inc.) was used for data collection.
(§1) Table Sup2: Data with some comparator compounds in functional assays. […]

[6] = biological target: dog IP (Canis lupus familiaris, UniProt A0A8I3MUB8); experiment: Radioligand binding, dog IP ([3H]-iloprost)
Method: (§2) CHO-K1 cells expressing recombinant IP receptors were harvested, washed with ice-cold phosphate buffered saline, pH 7.4 (PBS), and then centrifuged at 48 000g for 20 min at 4 °C. The resulting cell pellet was then resuspended in ice-cold PBS containing 20 mM HEPES, pH 7.4, and 0.1 mM EDTA, homogenized on ice using a Brinkman Polytron, and centrifuged (48 000g for 20 min at 4 °C). This resuspension and centrifugation process was repeated one further time. Crude membrane pellets were stored at −80 °C until used for radioligand binding assays.
(§3) Assay incubations were terminated by rapid filtration through PerkinElmer GF/C filtration plates pretreated with 0.3% PEI, under vacuum pressure using a 96-well Packard filtration apparatus, followed by multiple washes with ice-cold wash buffer (PBS containing 20 mM HEPES and 0.1 mM EDTA, pH 7.4). Plates were then dried at 45 °C for a minimum of 2 h. Finally, 25 μL of BetaScint scintillation cocktail was added to each well and plates were counted in a Packard TopCount scintillation counter. In each competition study, test compounds were dosed at 10 concentrations with triplicate determinations at each test concentration. A reference compound, typically iloprost, was included in every runset for quality control purposes.

[7] = biological target: EP2 (Homo sapiens, UniProt P43116); experiment: cAMP HTRF agonist assay, EP2; assay type: cell-based; conditions: for agonist activity at EP2: HTRF cAMP functional assay
From the text: as §1

[8] = biological target: T2, rat IP; experiment: Radioligand binding, rat IP ([3H]-iloprost); set-up: expressed in transfected cells; host or cells: CHO-K1 (crude membranes)
Method: as §2, §3

[9] = read-out: Ki dog IP ([3H]-iloprost)

Sequence of EP4 (P35408 whole entry): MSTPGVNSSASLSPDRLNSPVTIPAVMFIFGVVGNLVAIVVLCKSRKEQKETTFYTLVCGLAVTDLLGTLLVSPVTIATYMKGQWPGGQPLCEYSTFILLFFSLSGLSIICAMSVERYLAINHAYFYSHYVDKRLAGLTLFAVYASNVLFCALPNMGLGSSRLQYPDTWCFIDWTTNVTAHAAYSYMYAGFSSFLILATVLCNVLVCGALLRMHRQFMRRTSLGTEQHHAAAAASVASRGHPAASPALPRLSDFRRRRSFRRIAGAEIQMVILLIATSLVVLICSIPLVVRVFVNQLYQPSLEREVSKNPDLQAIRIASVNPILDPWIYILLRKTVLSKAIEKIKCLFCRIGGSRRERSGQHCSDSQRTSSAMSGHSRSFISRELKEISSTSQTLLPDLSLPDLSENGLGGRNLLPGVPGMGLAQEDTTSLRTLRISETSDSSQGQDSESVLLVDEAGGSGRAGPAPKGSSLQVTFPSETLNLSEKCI
Sequence of IP (P43119 whole entry): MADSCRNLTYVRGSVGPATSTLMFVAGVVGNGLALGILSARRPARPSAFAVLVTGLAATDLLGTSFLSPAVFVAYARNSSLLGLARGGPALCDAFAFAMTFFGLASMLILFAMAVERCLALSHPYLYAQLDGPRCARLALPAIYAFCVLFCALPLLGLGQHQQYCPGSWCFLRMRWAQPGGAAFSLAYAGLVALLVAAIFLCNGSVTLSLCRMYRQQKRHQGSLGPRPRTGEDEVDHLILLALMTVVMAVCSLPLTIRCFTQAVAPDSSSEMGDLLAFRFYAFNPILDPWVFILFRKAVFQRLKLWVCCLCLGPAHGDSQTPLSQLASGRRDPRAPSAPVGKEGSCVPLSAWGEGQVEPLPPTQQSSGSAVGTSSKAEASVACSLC
T2 sequence (P43253 whole entry): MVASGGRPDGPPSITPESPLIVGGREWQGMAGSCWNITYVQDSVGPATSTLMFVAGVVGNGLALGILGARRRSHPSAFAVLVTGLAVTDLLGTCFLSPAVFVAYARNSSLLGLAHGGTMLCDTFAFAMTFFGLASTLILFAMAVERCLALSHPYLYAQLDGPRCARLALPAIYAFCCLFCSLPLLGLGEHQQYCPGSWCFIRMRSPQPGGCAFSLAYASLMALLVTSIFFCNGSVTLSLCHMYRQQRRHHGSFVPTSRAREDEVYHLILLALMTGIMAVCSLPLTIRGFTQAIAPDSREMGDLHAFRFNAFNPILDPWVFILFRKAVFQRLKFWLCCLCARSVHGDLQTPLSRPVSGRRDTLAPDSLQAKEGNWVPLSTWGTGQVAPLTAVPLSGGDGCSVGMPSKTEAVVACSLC
Sequence of dog IP (A0A8I3MUB8 1-381): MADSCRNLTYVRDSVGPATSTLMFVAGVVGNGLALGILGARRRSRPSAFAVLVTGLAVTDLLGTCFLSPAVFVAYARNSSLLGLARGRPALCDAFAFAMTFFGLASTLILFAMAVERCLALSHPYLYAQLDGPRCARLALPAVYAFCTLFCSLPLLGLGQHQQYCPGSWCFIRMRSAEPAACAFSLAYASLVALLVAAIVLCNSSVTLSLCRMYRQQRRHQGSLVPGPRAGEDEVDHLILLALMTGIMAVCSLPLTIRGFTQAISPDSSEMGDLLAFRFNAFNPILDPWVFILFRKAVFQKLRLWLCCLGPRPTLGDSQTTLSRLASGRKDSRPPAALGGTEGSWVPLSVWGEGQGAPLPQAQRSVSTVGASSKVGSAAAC
Sequence of EP2 (P43116 whole entry): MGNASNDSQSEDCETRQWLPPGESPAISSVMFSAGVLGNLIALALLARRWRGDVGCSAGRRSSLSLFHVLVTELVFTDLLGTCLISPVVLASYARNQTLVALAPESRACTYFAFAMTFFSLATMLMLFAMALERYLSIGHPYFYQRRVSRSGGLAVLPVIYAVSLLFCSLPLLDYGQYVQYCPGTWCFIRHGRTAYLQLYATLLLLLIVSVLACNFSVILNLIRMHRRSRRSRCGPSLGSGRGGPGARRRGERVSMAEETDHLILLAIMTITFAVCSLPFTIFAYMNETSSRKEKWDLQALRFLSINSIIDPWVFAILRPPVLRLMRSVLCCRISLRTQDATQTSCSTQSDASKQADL

Row | Compound | Emax ([1]; CHO-K1; read-out: hIP % IA) [%] | pEC50 ([1]; HTRF (cAMP) human IP receptor assay; mean of at least three determinations) | pKi [2] | EP3/IP binding selectivity ratio ([2]; human EP3v6 Ki versus human IP Ki) | agonist activity at EP4 [3] | pEC50 [4] | Emax [4] [%] | behaviour at EP3 in melanophore platform [5] | pKi [6, 9] | agonist activity at EP2 [7] | pKi [8] | Emax ([1]; CHO-K1, read-out: hIP % IA) [%] | pEC50 ([3]; cAMP HTRF agonist assay) | EP4 % I.A ([3]; cAMP HTRF agonist assay) [%] | pEC50 [5] | EP3v6 % I.A [5] [%] | pKi [6] | pEC50 ([7]; cAMP HTRF agonist assay) | EP2 % I.A ([7]; cAMP HTRF agonist assay) [%]
1 | O=C(O)COC[C@H]1CC[C@H](COC(=O)N(c2ccccc2)c2cccc(F)c2)CC1 [5g, 2-(((1r,4r)-4-(((3-Fluorophenyl)(phenyl)carbamoyloxy)methyl)cyclohexyl)methoxy)acetic Acid] | 85 | 8.06 | 6.68 | 30- to 50 fold | no significant agonist activity | 6.55 | 83 | behaved as EP3 agonists | 6.74 | no significant agonist activity | 7.29 | – | – | – | – | – | – | – | –
2 | CC#CCC(C)[C@H](O)/C=C/[C@@H]1[C@H]2C/C(=C/CCCC(=O)O)C[C@H]2C[C@H]1O (stereo partly drawn) [iloprost] | – | – | 5.43 | – | – | 9.16 | 99 | – | – | – | 9.00 | 101 | 6.39 | 96 | 6.55 | 68 | 8.77 | 6.84 | 110
3 | O=C(O)COC[C@H]1CC[C@H](COC(=O)N(c2ccccc2)c2ccc(Cl)cc2)CC1 [5c, Sodium 2-(((1r,4r)-4-(((4-Chlorophenyl)(phenyl)carbamoyloxy)methyl)cyclohexyl)methoxy)acetate] | – | – | 6.84 | – | no significant agonist activity | 6.28 | 88 | behaved as EP3 agonists | 6.59 | no significant agonist activity | 7.12 | 85 | < 5.00 | – | 6.64 | 98 | – | < 5.00 | –
